US20230357292A1, “MULTI-COORDINATE GOLD-PHOSPHINE COMPOUNDS AND METHOD OF USE” (University of Kentucky Research Foundation, priority 2020, published 2023)

Tests used:
[1] = tested on: MDA-MB-231 (breast); test: Cell viability, crystal violet assay, MDA-MB-231; assay type: cell-based, human; conditions: for IC50: MDA-MB-231 (breast), 4,000 cells/well, treated 72 h, mean ± SD (n = 3)
From the text: The plates were washed with water and dried again.

[2] = tested on: H460 (lung); conditions: H460 (lung), 4,000 cells/well, treated 72 h, mean ± SD (n = 3)
Experimental: (§1) All cell lines (OVCAR8, A2780, H460, and MDA-MB-231) were cultivated in RPMI or DMEM supplemented with 10% FBS, 1% penicillin/streptomycin, and 1% amphotericin. All cells were grown at 310K in a humidified atmosphere containing 5% CO2.
(§2) Various established human ovarian, lung, and breast cancer cell lines were seeded in 96-well plates (4000 cells/well) and were incubated with RPMI 1640 or DMEM (100 μL) supplemented with 10% FBS, 1% penicillin/streptomycin, and 1% amphotericin for 24 h and at 37° C. They were then treated with AuPhos compounds at increasing concentrations for 72 h from stock solutions following serial dilutions, in which AuPhos stock solutions were prepared in DMSO/media mixture (% v/v=20:80). Thereafter, cellular viability was assessed via the established crystal violet colorimetric assay. In brief, cells were fixed with 50 μL of a 1% glutaraldehyde solution and placed in an incubator (37° C., 5% CO2) for 1 hour. The plates were washed with water by running them under a gentle flow of tap water. The plates were air-dried, and crystal violet reagent was added to each well and allowed to incubate at room temperature for 20 min. The plates were washed with water and dried again. Methanol (200 μL/well) was added to each well, and the measurements of absorbance were subsequently performed using a Biotek Synergy H1 Plate Reader at 570 nm (peak absorbance).

[3] = tested on: A2780 (ovarian); conditions: A2780 (ovarian), 4,000 cells/well, treated 72 h, mean ± SD (n = 3)
Experimental: as §1, §2

[4] = tested on: OVCAR8 (ovarian); conditions: OVCAR8 (ovarian), 4,000 cells/well, treated 72 h, mean ± SD (n = 3)
Experimental: as §1, §2

[5] = tested on: 4T1 tumor; test: In vivo comparative experiment of AuPhos-89 and cisplatin, 4T1, IP; design: species or system BALB/c mice
Experimental: Mice were implanted with 2,000,000 4T1 cells subcutaneously on their flanks. […] The control group was injected with a PBS solution containing 1.5% DMSO and 12% Kolliphor. Injection and tumor-size/body-weight measurement was performed three days a week.
Mice organs (heart, lung, liver, kidney, spleen, and tumor) were fixed in freshly prepared paraformaldehyde (4% in PBS), the fixation time was 24 hours. And those processed for paraffin sectioning. The organs sections of 5 μm were stained with H&E staining and used for histological examination of the organs and tumor. A total of 5 sections per tissues (spanning the full depth of the organ) were examined and photographed using a Nikon Eclipse 55i microscope. […]

[6] = tested on: MDA-MB-231 cells; conditions: 2 mM for 3 h, FACS
Experimental: MDA-MB-231 cells were seeded at a density of 5×10^5 cells/well in a 6-well clear bottom plate with a final media volume of 2 mL. The cells were allowed to adhere overnight at 37° C. A stock of AuPhos-89 was prepared fresh in DMSO/DMEM (% v/v=20:80) and added to the desired well at a concentration of 1 μM with a final volume of 2.5 mL and incubated for 15 h at 37° C. A stock of H2O2 was prepared in PBS and the cells treated at a final concentration of 2 mM for 3 hours and used as positive control. When ready for analysis, medium was removed and the wells washed with 5 mL of PBS. The cells were trypsinized (1 mL), 5 mL of DMEM were added to each well, and total volume collected and centrifuged to pellet the cells. The cells were resuspended in 2 mL of fresh media, counted, and reconstituted to a concentration of 1×10^5 cells/mL. The cells were centrifuged again, and the pellet suspended in 500 μL of Annexin binding buffer. To each sample was added 5 μl of Annexin V-FITC and 5 μl PI and incubated in the dark at room temperature for 5 minutes. The samples were then subjected to FACS analysis.

Compound: c1ccc(P(c2ccccc2)c2ccccc2P(c2ccccc2)c2ccccc2)cc1 [1,2-Bis(diphenylphosphino)benzene, reference compound]
- IC50 ([1]; Homo sapiens): 1370 ± 450 nM
- less cytotoxicity compared with the AuPhos compounds (Table 1) ([1]; MDA-MB-231): ~6 times

Compound: Cl.[Cl][Au-]1([c]2ccccc2Nc2ccccn2)[P+](c2ccccc2)(c2ccccc2)c2ccccc2[P+]1(c1ccccc1)c1ccccc1 [AuPhos-82, (2-anilinopyridine)[1,2-Bis(diphenylphosphino)benzene]gold(III) Dichloride]
- IC50 [2]: 1040 ± 170 nM
- IC50 [3]: 340 ± 40 nM
- IC50 [4]: 850 ± 60 nM
- IC50 [1]: 220 ± 200 nM

Compound: Cl.[Cl][Au-]1([c]2ccccc2Cc2ccccn2)[P+](c2ccccc2)(c2ccccc2)c2ccccc2[P+]1(c1ccccc1)c1ccccc1 [AuPhos-84, (2-benzylpyridine)[1,2-Bis(diphenylphosphino)benzene]gold(III) Dichloride]
- IC50 [2]: 760 ± 150 nM
- IC50 [3]: 250 ± 60 nM
- IC50 [4]: 1240 ± 140 nM
- IC50 [1]: 240 ± 160 nM

Compound: Cl.O=C(c1ccccn1)c1cccc[c]1[Au-]1([Cl])[P+](c2ccccc2)(c2ccccc2)c2ccccc2[P+]1(c1ccccc1)c1ccccc1 [AuPhos-85, (2-benzoylpyridine)[1,2-Bis(diphenylphosphino)benzene]gold(I) Dichloride]
- IC50 [2]: 340 ± 70 nM
- IC50 [3]: 150 ± 30 nM
- IC50 [4]: 640 ± 110 nM
- IC50 [1]: 260 ± 60 nM

Compound: Cl.[Cl][Au-]1([c]2cccc3ccc4cccnc4c23)[P+](c2ccccc2)(c2ccccc2)c2ccccc2[P+]1(c1ccccc1)c1ccccc1 [AuPhos-86, (benzo[h]quinoline)[1,2-Bis(diphenylphosphino)benzene]gold(III) Dichloride]
- IC50 [2]: 340 ± 70 nM
- IC50 [3]: 330 ± 40 nM
- IC50 [4]: 820 ± 440 nM
- IC50 [1]: 290 ± 40 nM

Compound: Cc1ccc(-c2ccccn2)[c]([Au-]2([Cl])[P+](c3ccccc3)(c3ccccc3)c3ccccc3[P+]2(c2ccccc2)c2ccccc2)c1.Cl [AuPhos-87, (2-(p-tolyl)pyridine)[1,2-Bis(diphenylphosphino)benzene]gold(III) Dichloride]
- IC50 [2]: 710 ± 90 nM
- IC50 [3]: 180 ± 40 nM
- IC50 [4]: 820 ± 760 nM
- IC50 [1]: 450 ± 190 nM

Compound: Cl.O=Cc1ccc(-c2ccccn2)[c]([Au-]2([Cl])[P+](c3ccccc3)(c3ccccc3)c3ccccc3[P+]2(c2ccccc2)c2ccccc2)c1 [AuPhos-88, (4-(2-pyridyl)benzaldehyde)[1,2-Bis(diphenylphosphino)benzene]gold(III) Dichloride]
- IC50 [2]: 400 ± 30 nM
- IC50 [3]: 270 ± 20 nM
- IC50 [4]: 850 ± 70 nM
- IC50 [1]: 370 ± 210 nM

Compound: N.N.[Cl][Pt][Cl] [cisplatin, reference compound]
- tumor inhibition compared with the control group ([5]; AuPhos-89 10 mg kg−1 IP, cisplatin 3 mg kg−1 IP): significant tumor inhibition
- tumor volume ([5]; six treatments, thrice a week, IP, AuPhos-89 10 mg kg−1, cisplatin 3 mg/kg, versus vehicle control): comparable results to AuPhos-89 treatment

Compound: OO [hydrogen peroxide, reference compound]
- apoptosis, positive control [6]: significant apoptosis

Compound: (2-phenoxypyridine)[1,2-Bis(diphenylphosphino) benzene]gold(III) Dichloride [AuPhos-83]
- IC50 [2]: 270 ± 60 nM
- IC50 [3]: 220 ± 10 nM
- IC50 [4]: 890 ± 140 nM
- IC50 [1]: 220 ± 70 nM
